For 71 compounds, IC50 results are on record in PubChem BioAssay AID488890 (Southern Research Specialized Biocontainment Screening …, 2010).

What is called IC50 is the concentration needed to halve the response being measured.

Molecules are shown by their SMILES. Inconclusive results are not listed. Activity calls are given as the source filed them. No rule for the calls is given here. Bounds are passed on as bounds.

The assay has as its system Mycobacterium tuberculosis non-replicating, growth inhibition. The assay can be described thus: growth inhibition of non-replicating M. tuberculosis (AID 488890).
For `C/C(=N\NC(=O)c1c[nH]c2ccccc12)c1ccccn1`, the half-maximal inhibitory concentration (IC50) is 6.38 µM.
The value for `O=C(Nc1nnc(-c2cc(Cl)ccc2Cl)o1)C1=COCCO1` was 22 µM (inactive).
Consider `COc1ccc(Nc2ccccc2N)cc1`, for which the concentration for half-maximal inhibition (IC50) was 2.72 µM.
The value for `CC(C)(C)c1ccccc1OCCOCCN1CCCCCC1` was 16.2 µM (inactive).
`O=C(CNC(=O)c1cccc(F)c1)N/N=C/c1ccc([N+](=O)[O-])s1`: the IC50 is 10.6 µM (inactive).
With `Cc1ccccc1C(=O)Nc1nnc(-c2ccco2)o1` the figure was 4.97 µM; with `Cc1cccc(NC(=O)COC(=O)CCc2c[nH]c3ccccc23)c1`, 1.94 µM; with `CC(C)C1O/C(=N/C(=O)Nc2ccc(Cl)c(Cl)c2)NC1=O` (stereo unspecified), 4.76 µM.
The value for `COC(=O)COc1ccc2c(=O)c(Oc3ccccc3)c(C)oc2c1` was 1.7 µM; that for `CC(C)c1ccc(OCC(=O)NC2=NCCS2)cc1` was 22.2 µM (inactive).
The value for `N#Cc1ccc(CSc2nnc(-c3cccnc3)o2)cc1` was 11.5 µM (inactive); that for `CC(=O)Nc1nc2ccccc2n1Cc1ccccc1Cl` was 14.1 µM (inactive); that for `CCOc1ccc(-c2cc(CCCC(=O)NCCC(C)C)no2)cc1` was 18.2 µM (inactive).
Regarding `CCOC(=O)COc1ccc2c(=O)cc(-c3ccccc3)oc2c1`, the IC50 was 0.83 µM.
With `COc1ccc(-c2cc(=O)oc(-c3cccc(C)c3)n2)cc1` the figure was 8.24 µM.
With `Nc1nc2ccccc2n1CCOc1ccc(Br)cc1` the figure was 21.5 µM (inactive).
The value for `Cc1ccc(N=Nc2c(C)[nH]n(C(N)=S)c2=O)cc1` was 2.35 µM; that for `COc1ccc(C2(O)CCN(CC(=O)Nc3nc(-c4ccccc4)cs3)CC2)cc1` was 24.2 µM (inactive).
Consider `CC(/C=C/c1ccccc1)=N\NC(=O)c1ccc2c(c1)OCCO2`, for which the IC50 was 8.02 µM.
The value for `CC1CCN(C(=O)COC(=O)c2cc3ccccc3cc2O)CC1` was 2.04 µM; that for `C[C@@H]1CN=C2N(CCNC(=O)CCC3CCCCC3)[C@H](Cc3ccc(O)cc3)CN21` was 18.9 µM (inactive).
The value for `O=C(N/N=C/c1cc(Br)cc(Br)c1O)c1cccc(N2CCCC2=O)c1` was 4.24 µM; that for `O=C(N/N=C/c1coc2ccccc2c1=O)c1ccc(Cl)cc1` was 0.97 µM; that for `CCc1cc(C=NC2CCCCC2)c(O)s1` was 1.78 µM.
Turning to `CCCn1nnnc1NC(=O)c1cc(Cl)ccc1Cl`, the IC50 was 6.8 µM.
The value for `Cc1cccc(N2CCN(Cc3ccc([N+](=O)[O-])o3)CC2)c1C` was 2 µM; that for `O=C(N/N=C/c1ccc(O)cc1)c1cccc(C(F)(F)F)c1` was 16 µM (inactive); that for `O=C(COC(=O)c1ccc(Br)o1)NC1CCCCC1` was 9.79 µM.
With `O=C(Nc1nnc(-c2ccc(Cl)cc2)o1)c1cccc(N2C(=O)CCC2=O)c1` the figure was 22.3 µM (inactive); with `COc1ccc(C(=O)N/N=C/c2cccc3cccnc23)cc1`, 6.88 µM.
The value for `O=C(Oc1cccc2cccnc12)c1cccc(-n2cnnn2)c1` was 22.9 µM (inactive); that for `CC1=NN(C(=O)c2ccoc2C)C(O)(C(F)(F)F)C1` (stereo unspecified) was 1.63 µM; that for `O=C(CNC(=O)c1ccco1)OCc1ccc(C(=O)Oc2ccccc2)cc1` was 8.17 µM.
For `O=C(Nc1nnc(-c2ccco2)o1)c1ccc([N+](=O)[O-])s1`, the IC50 is 22.4 µM (inactive).
With `OC(CNCCc1ccc(C(F)(F)F)cc1)COc1ccc2ccccc2c1` (stereo unspecified) the figure was 8.28 µM; with `CC(C)(C)OC(=O)N/N=C\c1ccc([N+](=O)[O-])s1`, 13.6 µM (inactive).
The value for `COc1ccc(N/N=C/c2c(C(=O)O)ccc3ccccc23)cc1` was less than 0.1 µM; that for `O=C(Oc1cccc2cccnc12)c1cccc([N+](=O)[O-])c1` was 3 µM; that for `CCc1ccc(NC(=O)C(=O)NNC(=O)COc2cccc(OC)c2)cc1` was 2.49 µM.
As to `CC1N(C)c2cccc3cccc(c23)N1C`, the IC50 was 36.8 µM (inactive).
With `Cc1c(CN2CCC(CO)(CCOc3ccccc3)CC2)[nH]c2c(Cl)cccc12` the figure was 8.93 µM; with `COc1cccc(-c2nnc(NC(=O)c3ccc(S(=O)(=O)N4CCOCC4)cc3)o2)c1`, 18.7 µM (inactive).
The value for `O=C(Nc1cccc(Cl)c1)C1COc2ccccc2O1` (stereo unspecified) was 7.86 µM; that for `c1ccc(Cc2nnc(-c3ccccc3)o2)cc1` was 0.19 µM.
With `Cc1ccc(-n2nnnc2CNC(=O)c2ccc([N+](=O)[O-])o2)cc1C` the figure was 24.2 µM (inactive); with `CCc1ccc(C2=C/C(=C/c3cccnc3)C(=O)O2)cc1`, 21.2 µM (inactive).
Turning to `Clc1ccc(Cl)c(OCCCCNCc2ccccc2)c1`, the IC50 was 15.1 µM (inactive).
With `Cc1ccc(NC(=O)C(=O)NNC(=O)c2ccccc2C)cc1Cl` the figure was 2.67 µM.
With `Cc1nnc(C)n1/N=C/c1cc(Br)cc(Br)c1O` the figure was 11.3 µM (inactive); with `O=C(N/N=C1\CCCc2c1[nH]c1ccc(Cl)cc21)c1ccncc1`, 1.78 µM; with `CCCN1C(=O)SC(CC(=O)Nc2ccccc2)C1=O` (stereo unspecified), 17.5 µM (inactive).
The value for `O=C(Nc1nccs1)c1ccc(Br)cc1` was 39.5 µM (inactive); that for `O=C(CNC(=O)c1ccccc1Cl)N/N=C/c1ccc([N+](=O)[O-])s1` was 23.5 µM (inactive).
With `c1ccc(Nc2nc(Nc3ccccc3)nc(N3CCNCC3)n2)cc1`, the IC50 is 12 µM (inactive).
With `Cc1ccc(C(=O)N/N=C\c2ccc([N+](=O)[O-])s2)cn1` the figure was 3.36 µM; with `Fc1ccc(-c2nnc(-c3ccc(F)cc3)o2)cc1`, 8.38 µM; with `COC(=O)COc1ccc(-c2ccccc2)cc1C=O`, 8.95 µM.
With `Cc1cccc(C2=N/C(=C\c3cccnc3)C(=O)O2)c1` the figure was 12.8 µM (inactive).
With `O=C(Nc1ccccc1N1CCCC1)c1cccc(F)c1` the figure was 24.4 µM (inactive); with `COc1ccc(NC(=O)COc2ccccc2)cc1Cl`, 22.2 µM (inactive).
With `CCN(CC)CCNC(=O)c1[nH]c2ccc(OCc3ccccc3)cc2c1C`, the IC50 is 29.6 µM (inactive).
With `O=C(Nc1nc2ccccc2n1CCN1CCCC1)C1CCCCC1` the figure was 17.8 µM (inactive); with `CC(C)N1C(=O)NC(=O)C2(Cc3cc([N+](=O)[O-])ccc3N(C)C2c2ccccc2)C1=O` (stereo unspecified), 14.7 µM (inactive).
The value for `CCCN(Cc1nnc(-c2ccccc2Cl)o1)C(=O)c1cc([N+](=O)[O-])cc([N+](=O)[O-])c1` was 5.83 µM; that for `CCOc1cc(CNCCO)cc(Br)c1OCc1ccccc1Cl` was 6.17 µM; that for `O=C(Nc1nnc(-c2ccc3c(c2)CCCC3)o1)c1c(F)cccc1F` was 3.12 µM.
The value for `COc1ccc(N2C(=O)NC(=O)/C(=C/c3ccc([N+](=O)[O-])s3)C2=O)cc1` was 16.1 µM (inactive).
Turning to `COC(=O)c1ccccc1Sc1ncnc2onc(C)c12`, the concentration for half-maximal inhibition (IC50) is 6.54 µM.
The value for `Clc1ccc2c(c1)C(N1CCNCC1)Cc1ccccc1S2` (stereo unspecified) was 15.2 µM (inactive); that for `O=C1OC(/C(=C\Nc2cc(Cl)ccc2O)[N+](=O)[O-])c2ccccc21` (stereo unspecified) was 7.86 µM.
As for `CN(C)CCCn1c(=O)n(CCc2ccccc2)c(=O)c2c3c(sc21)CCCCC3`, the IC50 is 16.9 µM (inactive).
